# Patent publication US10952974B2, “Delivery of bioactive, nanoencapsulated antioxidants” (Board of Supervisors of Louisiana State University and …, priority 2014, dated 2021)
# Like-named read-outs stand apart in the source and are kept apart here.
# Tests used:
# [1] = tested on: selenite-induced cataract; test: Selenite-induced cataract in rat pups, first animal study; type: in vivo, Wistar albino rat
# Procedure: Four pregnant Wistar female albino rats were obtained from the Laboratory Animal Facility of the Iuliu Hatieganu University of Medicine and Pharmacy in Cluj-Napoca, Romania. Each female rat and its litter of pups were housed in plastic cages, on a 12 h lighting cycle, at constant temperature (22° C.) with free access to rat chow and tap water. At 12 days of age, the rat pups were randomized into seven groups as follows:
# Group 1 (selenite group, positive control): no exposure to lutein
# Group 2 (PLGA-NP-1) daily received orally, by gavage, 2.5 mg/kg PLGA-NP-lutein dispersed in a 0.5 mL emulsion of 30% olive oil+70% flour slurry, corresponding to a daily dose of 2.66 mg lutein/kg body mass. (The flour slurry, in turn, had been prepared by mixing 0.3 g flour in 1 ml water.)
# Group 3 (PLGA-NP-2) daily received orally, by gavage, 5 mg/kg PLGA-NP-lutein dispersed in 0.5 mL emulsion of 30% olive oil+70% flour slurry, corresponding to a daily dose of 5.32 mg lutein/kg body mass. (Flour slurry: identical to that used for Group 2
# Group 4 (lutein) daily received orally, by gavage, 0.00525 mg unmodified lutein dispersed in 0.5 mL emulsion of 30% olive oil+70% flour slurry, corresponding to a daily dose of 0.125 mg lutein/kg body mass. (Flour slurry: identical to that used for Group 2.)
# Group 5 (HG-PLGA-NP-1) was treated locally, once a day, with corneal application (1 drop in each eye) of 1 wt % PLGA-NP-lutein in the bioadhesive hydrogel of Example 19. (30 mg of lyophilized lutein-loaded PLGA NPs were dissolved in 3 ml of bioadhesive hydrogel. The volume of one drop of hydrogel was approx. 0.012 mL, with a density of 0.9444 g/mL.)
# Group 6 (HG-PLGA-NP-2) was treated locally, once a day, by corneal application (1 drop/in each eye) with 3% PLGA-NP-lutein in a bioadhesive hydrogel. (90 mg of lyophilized lutein-loaded PLGA NPs were dissolved in 3 ml of bioadhesive hydrogel. The volume of one drop of hydrogel was approx. 0.012 mL, with a density of 0.9444 g/mL.)
# Group 7 (negative control)—no exposure to selenite, and no lutein treatment.
# On day 13 post-partum, cataracts were induced in all animals in Groups 1-6 with a single, intraperitoneal injection of sodium selenite (Na2SeO3), 30 μmol/kg. Subsequently, the animals from groups 2-6 were treated daily, in accordance with the protocols described above. The lutein content of the PLGA-NPs (42.61 μg lutein/mg PLGA-NP) was assessed by UV-VIS spectrophotometry (450 nm) with an external standard calibration. On day 21 post-partum, cataract development was evaluated by slit-lamp examination. Eyes were scored into one of five stages: stage 0 (no cataract), stage 1 (slight nucleus opacity), stage 2 (mild nucleus opacity, a central while opacity occupying less than half the diameter of the nucleus), stage 3 (dense opacity, a central while opacity occupying more than half the diameter of the nucleus) and stage 4 (dense, white opacity over the whole nucleus). Statistics were performed in SPSS 14.0 for Windows and Excel. The variables were checked for normal distribution with the Shapiro-Wilk test. Groups were compared with the Wilcoxon test. Statistical significance was set at p<0.05.
# [2] = Solubility of lutein in water and organic solvents; type: physicochemical; conditions: chloroform vs ethanol
# [3] = cited from earlier work
# [4] = cited from earlier work; remark: listed apart in the source
# [5] = oral gavage daily, 0.125 mg lutein/kg, day 21 postpartum
compound,measurement,setting,value
"CC1=C[C@H](O)CC(C)(C)[C@H]1/C=C/C(C)=C/C=C/C(C)=C/C=C/C=C(C)/C=C/C=C(C)/C=C/C1=C(C)C[C@@H](O)CC1(C)C [Lutein, β,ε-carotene-3,3′-diol]",Cataract stage Mean ± SD,[1]; [5],3.2 ± 0.8
same,Stage 0,[1]; [5],0 no. animals
same,Stage 1,[1]; [5],0 no. animals
same,Stage 2,[1]; [5],1 no. animals
same,Stage 3,[1]; [5],2 no. animals
same,Stage 4,[1]; [5],2 no. animals
same,reduction in cataract development vs selenite group,[1]; treated orally,small (and statistically insignificant) reduction in cataract development
same,solubility in chloroform relative to solubility in ethanol,[2],20 times
same,Stability,[3]; stored at −20° C. under a nitrogen atmosphere,Stable if stored at −20 °C under a nitrogen
same,Stability,[3]; to light and oxygen,Unstable to light and oxygen;
same,Solubility,[4]; in 2-Propanol,400 mg/L
same,Solubility,[4]; in Acetone,800 mg/L
same,Solubility,[4]; in Acetonitrile,100 mg/L
same,Solubility,[4]; in Benzene,600 mg/L
same,Solubility,[4]; in Chloroform,6000 mg/L
same,Solubility,[4]; in Cyclohexane,50 mg/L
same,Solubility,[4]; in Cyclohexanone,4000 mg/L
same,Solubility,[4]; in Dimethyl formamide,1000 mg/L
same,Solubility,[4]; in Ethyl acetate,800 mg/L
same,Solubility,[4]; in Ethyl alcohol,300 mg/L
same,Solubility,[4]; in Ethyl ether,2000 mg/L
same,Solubility,[4]; in Hexane,20 mg/L
same,Solubility,[4]; in Methyl alcohol,200 mg/L
same,Solubility,[4]; in Methyl tert butyl ether,2000 mg/L
same,Solubility,[4]; in Tetrahydrofuran,8000 mg/L
same,Solubility,[4]; in Toluene,500 mg/L
same,Solubility in water,[4],Insoluble
same,Solubility in water,[4]; listed as lutein,water-insoluble
